Assays:
[1] = test system: Human umbilical vein endothelial cells (HUVECs); experiment: Growth inhibitory activity on human umbilical vein endothelial cells stimulated by VEGF; type: cell-based; conditions: HUVEC, 72 h, 3 days, Cell Counting Kit-8
Protocol: Human umbilical vein endothelial cells (HUVECs) were isolated according to the reported method (Shin-seikagaku jikken kouza “saibou baiyou gijutu (Cell culturing techniques)” p. 197-202) and incubated to confluence using an EGM-2 culture medium (obtained from Sanko Junyaku Co., Ltd.) in a 5% CO2 incubator (37° C.). The HUVECs were collected by a trypsin-EDTA treatment and washed with a culture medium (2% fetal bovine serum-supplemented Human endothelial SFM basal medium, obtained from Invitrogen Corp.), followed by suspending them in the medium to count the cell number. By diluting it with the medium, a 2×10^4 cells/ml cell suspension was prepared. The cell suspension was dispensed into a 96-well plate (obtained from FALCON) by 100 μl each, and incubated at 37° C. in a 5% CO2 incubator overnight. After the incubation, 50 μl of the test substance diluted with the medium was added to each well, and 50 μL of 80 ng/ml human recombinant VEGF (obtained from R&D systems, Inc.) diluted with the medium was added and further incubated for 3 days in the 5% CO2 incubator (37° C.). After the incubation, 20 μl of Cell Counting Kit-8 (obtained from DOJINDO Laboratories) was added to each well, which were incubated for about 2 hours in the 5% CO2 incubator (37° C.). After the incubation, the absorbance of the each well was measured using a plate reader MTP-500 (Corona Electric Co., Ltd) with a measurement wavelength of 450 nm and a control wavelength of 660 nm. A ratio of absorbance (%) of each well with the test substance against the wells without the test substance was determined, and based on this ratio, the concentration of the test substance required to inhibit 50% of cell proliferation (IC50) was determined and the results are shown in Table 2.

[2] = target: T1, VEGFR-2 tyrosine kinase (His6-VEGFR-2, cytoplasmic domain) (Homo sapiens, UniProt P35968); experiment: Inhibitory activity on VEGFR-2 tyrosine kinase (HTRF); type: biochemical; conditions: biotin-poly(GT) substrate
T1 construct: made in house; host or cells: Sf9 insect cells (baculovirus, pFastBac-HT)
T1 sequence (P35968 786-1356 limits assumed): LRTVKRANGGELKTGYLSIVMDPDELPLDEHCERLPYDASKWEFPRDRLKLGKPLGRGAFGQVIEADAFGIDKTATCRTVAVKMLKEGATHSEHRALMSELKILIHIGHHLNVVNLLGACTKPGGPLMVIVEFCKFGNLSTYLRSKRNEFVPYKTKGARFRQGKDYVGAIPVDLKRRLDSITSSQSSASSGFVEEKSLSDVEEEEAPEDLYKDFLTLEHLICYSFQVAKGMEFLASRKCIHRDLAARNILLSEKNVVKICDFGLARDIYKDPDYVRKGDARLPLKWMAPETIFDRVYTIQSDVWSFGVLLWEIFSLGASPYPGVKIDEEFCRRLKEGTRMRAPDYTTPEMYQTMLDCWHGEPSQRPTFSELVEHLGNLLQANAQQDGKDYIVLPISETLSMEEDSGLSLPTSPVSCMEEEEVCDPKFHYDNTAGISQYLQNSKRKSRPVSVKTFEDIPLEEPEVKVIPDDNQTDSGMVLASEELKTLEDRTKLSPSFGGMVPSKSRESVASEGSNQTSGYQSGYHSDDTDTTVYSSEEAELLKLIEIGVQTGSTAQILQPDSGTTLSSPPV
From the text: Cytoplasmic domain of VEGFR-2 (Genbank Accession No. L04947) is a 1.7 kb DNA fragment starting from lysine 791 and contains a stop codon, as described by Tarman et al. (Oncogene, 6(9), 1677-1683, 1991). This DNA fragment was isolated from a human placental cDNA library (obtained from Clontech Laboratories, Inc.) with two primers (obtained from TaKaRa Ex Taq™ Kit, TaKaRa) using a PCR method. This DNA fragment was cloned into a baculovirus transplace vector (pFastBac™-HT (obtained from GIBCO BRL)), to obtain a recombinant construct. An insect cell (Spodoptera frugiperda 9 (Sf9)) was transfected with it, and a VEGFR-2 recombinant baculovirus solution was prepared (preparation of the recombinant baculovirus can be found in a standard textbook (Bac-to-Bac Baculovirus Expression System (GIBCO BRL)).
To Sf9 cells (3×10^8 cells) suspended in a SF-90011 culture medium containing 2% FBS (obtained from Invitrogen Corp.), the above mentioned recombinant VEGFR-2 baculovirus solution (4 ml) was added and incubated with shaking at 27° C. for 48 hours. The recombinant VEGFR-2 baculovirus-infected cell culture was centrifuged at 4° C. at 1000 rpm for 5 minutes, and the supernatant was removed. The precipitated infected cells were suspended in 80 ml of ice-cold PBS, the suspension was centrifuged at 4° C. at 1000 rpm for 5 minutes, and the supernatant was removed. The precipitated infected cells were suspended in 40 ml of ice-cold Lysis Buffer (50 mM Tris-HCl (pH 8.5), 5 mM 2-mercaptoethanol, 100 mM KCl, 1 mM PMSF, and 1% (v/v) NP-40). This suspension was centrifuged at 4° C. at 12,000 rpm for 30 min to obtain a supernatant.
This supernatant was added to a Ni-NTA agarose column (3 ml, obtained from Qiagen) which had been equilibrated with 30 ml of Buffer A (20 mM Tris-HCl (pH 8.5), 5 mM 2-mercaptoethanol, 500 mM KCl, 20 mM imidazole, and 10% (v/v) glycerol). This column was washed sequentially with 30 ml of Buffer A, 6 ml of Buffer B (20 mM Tris-HCl (pH 8.5), 5 mM 2-mercaptoethanol, 1M KCl, and 10% (v/v) glycerol), and 6 ml of Buffer A. Then, to this column, 6 ml of Buffer C (20 mM Tris-HCl (pH 8.5), 5 mM 2-mercaptoethanol, 100 mM KCl, 100 mM imidazole, and 10% (v/v) glycerol) was added to obtain an eluate. This eluate was poured into a dialysis membrane (obtained from Spectrum Laboratories) and dialyzed with 1 liter of dialysis buffer (20 mM Tris-HCl (pH 7.5), 10% (v/v) glycerol, 1 mM DTT, 0.1 mM Na3VO4, 0.1 mM EGTA) at 4° C. overnight and stored at −80° C. until use. After the dialysis, a part of the eluate was subjected to a SDS electrophoresis, and the recombinant protein (His 6-VEGFR-2, a cytoplasmic domain of VEGFR-2 fused with 6 histidine residues on its N-terminus) detected at about 100 kDa Mw in Coomassie Brilliant Blue staining was subjected to protein quantification using BSA (obtained from Sigma Co. Ltd.) as a standard.
In each well of a 96-well round bottom plate (obtained from NUNC, product number 163320), 10 μl of a solution for kinase reaction (200 mM Hepes (pH 7.4), 80 mM MgCl2, 16 mM MnCl2, 2 mM Na3VO4), 250 ng of biotin-conjugated poly (Glu 4: Tyr 1) (biotin-poly (GT) obtained from Nihon Schering K.K.) (6 μl of 1/15 diluted solution with distilled water), 15 ng of His6-VEGFR-2 (10 μl of a 1/240 diluted solution with a 0.4% BSA solution), and a test substance solution in dimethyl sulfoxide (4 μl of 1/100 dilution with 0.1% BSA) were added to make a total volume of 30 μl. To them, 10 μl of 4 μM ATP (obtained from Sigma Co. Ltd.) diluted with distilled water was added, and the resultant was incubated for 10 minutes at 30° C., followed by addition of 10 μl of 500 mM EDTA (pH 8.0) (obtained from Wako Pure Chemical Industries, Ltd.) to obtain a kinase reaction solution.
To detect tyrosine-phosphorylated biotin-poly (GT), the Homogenous Time-Resolved Fluorescence (HTRF) method was used (Analytical Biochemistry, 269, 94-104, 1999). […]

Row | Compound | IC50 [2] | IC50 [1]
1 | O=C(Nc1cc(Oc2cc(F)c(NC(=O)C3(C(=O)Nc4ccc(F)cc4)CC3)cc2F)ccn1)N1CC(CO)C1 [N-(2,5-Difluoro-4-{[2-({[3-(hydroxymethyl)azetidin-1-yl]carbonyl}amino)pyridin-4-yl]oxy}phenyl)-N′-(4-fluorophenyl)cyclopropane-1,1-dicarboxamide] | 0.01 µM | 0.0055 µM
2 | CN1CCN(C2CCN(C(=O)Nc3cc(Oc4cc(F)c(NC(=O)C5(C(=O)Nc6ccc(F)cc6)CC5)cc4F)ccn3)CC2)CC1 [N-(2,5-Difluoro-4-{[2-({[4-(4-methylpiperazin-1-yl)piperidin-1-yl]carbonyl}amino)pyridin-4-yl]oxy}phenyl)-N′-(4-fluorophenyl)cyclopropane-1,1-dicarboxamide] | 0.1 µM | 0.02 µM
3 | CN1CCC(N(C)C(=O)Nc2cc(Oc3cc(F)c(NC(=O)C4(C(=O)Nc5ccc(F)cc5)CC4)cc3F)ccn2)CC1 [N-(2,5-Difluoro-4-{[2-({[methyl(1-methylpiperidin-4-yl)amino]carbonyl}amino)pyridin-4-yl]oxy}phenyl)-N′-(4-fluorophenyl)cyclopropane-1,1-dicarboxamide] | 0.095 µM | 0.021 µM

The next lines start with results.

Row | IC50 [2] | Compound | IC50 [1]
4 | 0.059 µM | O=C(Nc1cc(Oc2ccc(NC(=O)C3(C(=O)Nc4ccc(F)cc4)CC3)c(F)c2)ccn1)N1CCC1 [N-[4-({2-[(Azetidin-1-ylcarbonyl)amino]pyridin-4-yl}oxy)-2-fluorophenyl]-N′-(4-fluorophenyl)cyclopropane-1,1-dicarboxamide] | 0.038 µM
5 | 0.0095 µM | O=C(Nc1cc(Oc2cc(F)c(NC(=O)C3(C(=O)Nc4ccc(F)cc4)CC3)cc2F)ccn1)N1CC(O)C1 [N-{2,5-Difluoro-4-[(2-{[(3-hydroxyazetidin-1-yl)carbonyl]amino}pyridin-4-yl)oxy]phenyl}-N′-(4-fluorophenyl)cyclopropane-1,1-dicarboxamide] | 0.015 µM

— patent US20090227556A1, “RECEPTOR TYROSINE KINASE INHIBITORS COMPRISING PYRIDINE AND PYRIMIDINE DERIVATIVES” (Eisai R&D Management Co., Ltd., priority 2008, published 2009)
